PMC9698773, “Design, Synthesis, Molecular Modeling, and Anticancer Evaluation of New VEGFR-2 Inhibitors Based on the Indolin-2-One Scaffold” (Pharmaceuticals, 2022)
Values joined by “and” are separate entries in the source; they are usually repeats but may differ in a detail not shown here. Equal values may be shown once.

Assays:
Bcl-2 = Bcl-2 expression assay (Western blot); assay type: cell-based, human; details: HepG2, 1.13 µM, 24 h
Method: The expression of BAX and Bcl-2 were evaluated in the HepG2 cells after treatment with 1.13 µM of compound 17a for 24 h. The Western blotting technique was utilized to determine the levels of Bax and Bcl-2 proteins and estimate the Bax/Bcl-2 ratio.
The expression of apoptotic BAX and antiapoptotic Bcl-2 proteins in the liver HepG2 cells treated with 1.13 μM of 17a was determined using Western blot analysis, as described in the Supplementary Materials. […]
Casp3 F: 5ʹ‐ […] ‐3ʹ
Casp3 R: 5ʹ‐ […] ‐3ʹ […]
β‐actin F: 5ʹ‐[…]‐3ʹ […]
β‐actin R: 5ʹ‐[…]‐3ʹ […]
4.2.6. Bax and Bcl‐2 expression assay
The expression of BAX and Bcl‐2 proteins were determined using Western blot anal‐ ysis. In brief, HepG2 cells were treated with control or with the synthesized compound 17a (1.13 μM). […] Total protein concentrations in the supernatant were colorimetrically determined using the Pierce 660 nm Protein Assay method (Thermo Fisher Scientific, Rockford, IL), with BSA as the stand‐ ard. […] Means of the detected blot intensities were then quantified, analyzed by the combined Bio‐Rad Image Lab soft‐ ware and their corresponding background subtracted, with normalization to the corre‐ sponding bands density of β‐actin as the sampling loading control. […]

HepG2 cells = test: Cell cycle analysis (PI staining, flow cytometry); assay type: cell-based, human; details: HepG2, 1.13 µM, 24 h
Method: The liver HepG2 cells were treated with 1.13 μM of 17a, and the effect on the cell cycle distribution was evaluated by flow cytometric analysis, as described in the Supplementary Materials. […]
4.2.3. Cell cycle analysis
To determine the role of the synthesized compounds in cell cycle distribution, cell cycle analysis was performed using propidium iodide (PI) staining and flow cytometry analysis for compound 17a. A Flow Cytometry Kit for Cell Cycle Analysis (ab139418_Pro‐ pidium Iodide Flow Cytometry Kit/BD) was used in this test. HepG2 cells were treated with compound 17a (1.13 μM) for 24 h. Then, the cells were fixed in 70% ethanol at 4 °C for 12 h. After that, the cells were washed with cold PBS, incubated with 100 μl RNase A at 37 °C for 30 min, and stained with 400 μ l PI in the dark at room temperature for a further 30 min. The stained cells were measured using a BD FACSCalibur™ Flow Cytometer, and the data were analyzed using Flowing software (version 2.5.1, Turku Centre for Biotech‐

Compound: O=C1Nc2ccccc2C1=Nc1ccc(C(=O)NNC(=S)Nc2ccccc2)cc1 [Compound 17a, 2-(4-((2-Oxoindolin-3-ylidene)amino)benzoyl)-N-phenylhydrazinecarbothioamide]
- decrease of Bcl-2 expression versus control (Bcl-2): 1.88 fold and 1.9 fold
- Protein Expression (Normalized to β-Actin) Bcl-2 (Bcl-2; control 0.432): 0.229
- Cell Cycle Distribution %G0-G1 (HepG2 cells): 42.91%
- Cell Cycle Distribution %G2/M (HepG2 cells): 9.07%
- Cell Cycle Distribution %S (HepG2 cells): 48.02%
- Cell Cycle Distribution %pre G1 (HepG2 cells): 46.38%
- increase of cell population at S phase versus control (HepG2 cells): 1.43 fold
- phase of cell cycle arrest (HepG2 cells): S phase
